≈ marks a conversion by molar mass, not a printed value.
Legend:
[1] = tested on: Staphylococcus aureus-SMITH (GC 4543); experiment: acute lethal infection in mice; type: in vivo; conditions: acute lethal infection, female CD-1 mice, intraperitoneal challenge, intravenous 30 min. after infection, 7 day survival
In short: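 Female CD-1 mice (20+/−2 gm) were infected intraperitoneally with enough bacteria, suspended in trypticase soy broth or hog gastric mucin, to kill untreated controls within 24-48 hr. Compound in saline or 5% dextrose was given intravenously 30 min post-infection, five mice per dose. ED50 came from pooled 7 day survival of 3 tests.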

Staphylococcus sp. = experiment: in vitro antibacterial evaluation, MIC by broth dilution; type: cell-based; conditions: broth dilution, 18 hours at 35° C.
In short: (§1)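 Test organisms, which included recent clinical isolates resistant to methicillin, penicillin and/or vancomycin, were inoculated at 5×10^5 CFU/mL into Muller-Hinton II […] containing antibiotic at 64-0.06 μg/mL. Minimum inhibitory concentrations were then read as the lowest level inhibiting growth.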

Enterococcus sp. = experiment: as above; type: cell-based; conditions: broth dilution, 18 hours at 35° C.
In short: as §1

Streptococcus sp. = experiment: as above; type: cell-based; conditions: broth dilution, 18 hours at 35° C.
In short: as §1

[2] = clinical pathology (serum clinical chemistry) in mice; type: in vivo; conditions: CD-1 mice, 20 mg/kg intravenously daily for 9 days, sera day 10
Description: 20-day-old CD-1 mice were divided into a vehicle control group (5 mice) and a treatment group (5 mice). Samples of glycopeptide antibiotics were administered at 20 mg/kg intravenously daily for 9 days.

Escherichia coli = experiment: in vitro antibacterial evaluation, MIC by broth dilution; type: cell-based; conditions: 18 hours at 35° C.
[3] = anatomic pathology (histopathology of heart and kidney) in mice; type: in vivo; conditions: CD-1 mice, 20 mg/kg intravenously daily for 9 days, necropsy day 10, microscopic histopathology
Description: Samples of tissues from necropsied mice were formalin-fixed, paraffin-embedded, sectioned, stained with hematoxylin and eosin, and examined microscopically. Histopathologic findings were recorded. These findings were subjectively graded on a scale corresponding to slight, mild, moderate, marked and severe as compared to untreated controls.

In the case of `COc1ccc2cc(COCC3OC(OC4C(CO)OC(Oc5ccc(CC6NC(=O)C(C(C)c7ccccc7)NC(=O)CNC(=O)C(CO)NC(=O)C(C(O)C7CNC(=N)N7C7OC(CO)C(O)C(O)C7O)NC(=O)C(C(O)C7CNC(=N)N7)NC6=O)cc5)C(O)C4O)C(O)C(O)C3O)ccc2c1` (stereo not drawn) [Example 230, Cyclo[glycyl-β-methylphenylalanyl-O-[4-O-[6-O-[(6-methoxy-2-naphthyl)methyl]hexopyranosyl]hexopyranosyl]tyrosyl-3-(2-iminoimidazolidin-4-yl)seryl-3-(3-hexopyranosyl-2-iminoimidazolidin-4-yl)serylseryl]], the median effective dose (ED50), Staphylococcus aureus-SMITH (GC 4543) [1] is reported as 0.12 mg/kg, the “MIC Coagulase Negative Staphylococcus (GC 4547)” value (Staphylococcus sp.) is reported as 1 µg/mL (≈ 0.682 µM) and the “MIC Coagulase Negative Staphylococcus (GC 4548)” value (Staphylococcus sp.) is reported as 0.5 µg/mL (≈ 0.341 µM). The “MIC Coagulase Negative Staphylococcus (GC 4549)” value (Staphylococcus sp.) was 1 µg/mL (≈ 0.682 µM), the “MIC Coagulase Negative Staphylococcus (GC 4551)” value (Staphylococcus sp.) was 2 µg/mL (≈ 1.36 µM) and the “MIC Coagulase Negative Staphylococcus (GC 6257)” value (Staphylococcus sp.) was 0.5 µg/mL (≈ 0.341 µM). The “MIC Staphylococcus aureus (ATCC 29213)” value (Staphylococcus sp.) was 2 µg/mL (≈ 1.36 µM), the “MIC Staphylococcus aureus (GC 1131)” value (Staphylococcus sp.) was 2 µg/mL (≈ 1.36 µM) and the “MIC Staphylococcus aureus (GC 3051)” value (Staphylococcus sp.) was 2 µg/mL (≈ 1.36 µM). For the same compound, the “MIC Staphylococcus aureus (GC 3053)” value (Staphylococcus sp.) was 2 µg/mL (≈ 1.36 µM), the “MIC Staphylococcus aureus (GC 4541)” value (Staphylococcus sp.) was 1 µg/mL (≈ 0.682 µM) and the “MIC Staphylococcus aureus (GC 4542)” value (Staphylococcus sp.) was 2 µg/mL (≈ 1.36 µM). For the same compound, the “MIC Staphylococcus aureus (GC 4544)” value (Staphylococcus sp.) was 2 µg/mL (≈ 1.36 µM), the “MIC Staphylococcus aureus (GC 4545)” value (Staphylococcus sp.) was 1 µg/mL (≈ 0.682 µM) and the “MIC Staphylococcus aureus-SMITH (GC 4543)” value (Staphylococcus sp.) was 1 µg/mL (≈ 0.682 µM). The “MIC Staphylococcus haemolyticus (GC 4546)” value (Staphylococcus sp.) was 1 µg/mL (≈ 0.682 µM), the “MIC Staphylococcus aureus (ATCC 29213)” value (Staphylococcus sp.; strain ATCC 29213) was 2 µg/mL (≈ 1.36 µM) and the “MIC Staphylococcus aureus (GC 1131)” value (Staphylococcus sp.; strain GC 1131) was 2 µg/mL (≈ 1.36 µM). For the same compound, the “MIC Staphylococcus aureus (GC 3051)” value (Staphylococcus sp.; strain GC 3051) was 2 µg/mL (≈ 1.36 µM), the “MIC Staphylococcus aureus (GC 3053)” value (Staphylococcus sp.; strain GC 3053) was 2 µg/mL (≈ 1.36 µM) and the “MIC Staphylococcus aureus (GC 4541)” value (Staphylococcus sp.; strain GC 4541) was 1 µg/mL (≈ 0.682 µM). The “MIC Staphylococcus aureus (GC 4542)” value (Staphylococcus sp.; strain GC 4542) was 2 µg/mL (≈ 1.36 µM), the “MIC Staphylococcus aureus-SMITH (GC 4543)” value (Staphylococcus sp.; strain GC 4543) was 1 µg/mL (≈ 0.682 µM) and the “MIC Staphylococcus aureus (GC 4544)” value (Staphylococcus sp.; strain GC 4544) was 2 µg/mL (≈ 1.36 µM). The “MIC Staphylococcus aureus (GC 4545)” value (Staphylococcus sp.; strain GC 4545) was 1 µg/mL (≈ 0.682 µM), the “MIC Staphylococcus haemolyticus (GC 4546)” value (Staphylococcus sp.; strain GC 4546) was 1 µg/mL (≈ 0.682 µM) and the “MIC Coagulase Negative Staphylococcus (GC 4547)” value (Staphylococcus sp.; strain GC 4547) was 1 µg/mL (≈ 0.682 µM). For the same compound, the “MIC Coagulase Negative Staphylococcus (GC 4548)” value (Staphylococcus sp.; strain GC 4548) was 0.5 µg/mL (≈ 0.341 µM), the “MIC Coagulase Negative Staphylococcus (GC 4549)” value (Staphylococcus sp.; strain GC 4549) was 1 µg/mL (≈ 0.682 µM) and the “MIC Coagulase Negative Staphylococcus (GC 4551)” value (Staphylococcus sp.; strain GC 4551) was 2 µg/mL (≈ 1.36 µM). The “MIC Coagulase Negative Staphylococcus (GC 6257)” value (Staphylococcus sp.; strain GC 6257) was 0.5 µg/mL (≈ 0.341 µM), the “MIC Enterococcus avium (GC 4558)” value (Enterococcus sp.) was 8 µg/mL (≈ 5.46 µM) and the “MIC Enterococcus faecalis (ATCC 29212)” value (Enterococcus sp.) was 8 µg/mL (≈ 5.46 µM). The “MIC Enterococcus faecalis (GC 2242)” value (Enterococcus sp.) was 8 µg/mL (≈ 5.46 µM), the “MIC Enterococcus faecalis (GC 2691)” value (Enterococcus sp.) was 4 µg/mL (≈ 2.73 µM) and the “MIC Enterococcus faecalis (GC 3059)” value (Enterococcus sp.) was 8 µg/mL (≈ 5.46 µM). The “MIC Enterococcus faecalis (GC 4552)” value (Enterococcus sp.) was 8 µg/mL (≈ 5.46 µM), the “MIC Enterococcus faecalis (GC 4553)” value (Enterococcus sp.) was 8 µg/mL (≈ 5.46 µM) and the “MIC Enterococcus faecalis (GC 4554)” value (Enterococcus sp.) was 8 µg/mL (≈ 5.46 µM). For the same compound, the “MIC Enterococcus faecalis (GC 6189)” value (Enterococcus sp.) was 4 µg/mL (≈ 2.73 µM), the “MIC Enterococcus faecium (GC 2243)” value (Enterococcus sp.) was 8 µg/mL (≈ 5.46 µM) and the “MIC Enterococcus faecium (GC 4556)” value (Enterococcus sp.) was 8 µg/mL (≈ 5.46 µM). The “MIC Enterococcus faecium (GC 4557)” value (Enterococcus sp.) was 2 µg/mL (≈ 1.36 µM), the “MIC Enterococcus faecalis (ATCC 29212)” value (Enterococcus sp.; inoculum 5×10^5 CFU/mL, strain ATCC 29212) was 8 µg/mL (≈ 5.46 µM) and the “MIC Enterococcus faecalis (GC 2242)” value (Enterococcus sp.; inoculum 5×10^5 CFU/mL, strain GC 2242) was 8 µg/mL (≈ 5.46 µM). The “MIC Enterococcus faecium (GC 2243)” value (Enterococcus sp.; inoculum 5×10^5 CFU/mL, strain GC 2243) was 8 µg/mL (≈ 5.46 µM), the “MIC Enterococcus faecalis (GC 2691)” value (Enterococcus sp.; inoculum 5×10^5 CFU/mL, strain GC 2691) was 4 µg/mL (≈ 2.73 µM) and the “MIC Enterococcus faecalis (GC 3059)” value (Enterococcus sp.; inoculum 5×10^5 CFU/mL, strain GC 3059) was 8 µg/mL (≈ 5.46 µM). For the same compound, the “MIC Enterococcus faecalis (GC 4552)” value (Enterococcus sp.; inoculum 5×10^5 CFU/mL, strain GC 4552) was 8 µg/mL (≈ 5.46 µM), the “MIC Enterococcus faecalis (GC 4553)” value (Enterococcus sp.; inoculum 5×10^5 CFU/mL, strain GC 4553) was 8 µg/mL (≈ 5.46 µM) and the “MIC Enterococcus faecalis (GC 4554)” value (Enterococcus sp.; inoculum 5×10^5 CFU/mL, strain GC 4554) was 8 µg/mL (≈ 5.46 µM). For the same compound, the “MIC Enterococcus faecium (GC 4556)” value (Enterococcus sp.; inoculum 5×10^5 CFU/mL, strain GC 4556) was 8 µg/mL (≈ 5.46 µM), the “MIC Enterococcus faecium (GC 4557)” value (Enterococcus sp.; inoculum 5×10^5 CFU/mL, strain GC 4557) was 2 µg/mL (≈ 1.36 µM) and the “MIC Enterococcus avium (GC 4558)” value (Enterococcus sp.; inoculum 5×10^5 CFU/mL, strain GC 4558) was 8 µg/mL (≈ 5.46 µM). For the same compound, the “MIC Enterococcus faecalis (GC 6189)” value (Enterococcus sp.; inoculum 5×10^5 CFU/mL, strain GC 6189) was 4 µg/mL (≈ 2.73 µM), the “MIC Streptococcus agalactiae (GC 4564)” value (Streptococcus sp.) was 0.5 µg/mL (≈ 0.341 µM) and the “MIC Streptococcus pneumoniae (ATCC 6301)” value (Streptococcus sp.) was 0.12 µg/mL (≈ 0.0819 µM). The “MIC Streptococcus pneumoniae (GC 1894)” value (Streptococcus sp.) was under 0.06 µg/mL, the “MIC Streptococcus pneumoniae (GC 4565)” value (Streptococcus sp.) was 0.12 µg/mL (≈ 0.0819 µM) and the “MIC Streptococcus pyogenes (GC 4563)” value (Streptococcus sp.) was 0.25 µg/mL (≈ 0.171 µM). For the same compound, the “MIC Streptococcus pneumoniae (ATCC 6301)” value (Streptococcus sp.; inoculum 5×10^5 CFU/mL, strain ATCC 6301) was 0.12 µg/mL (≈ 0.0819 µM), the “MIC Streptococcus pneumoniae (GC 1894)” value (Streptococcus sp.; inoculum 5×10^5 CFU/mL, strain GC 1894) was under 0.06 µg/mL and the “MIC Streptococcus pyogenes (GC 4563)” value (Streptococcus sp.; inoculum 5×10^5 CFU/mL, strain GC 4563) was 0.25 µg/mL (≈ 0.171 µM). For the same compound, the “MIC Streptococcus agalactiae (GC 4564)” value (Streptococcus sp.; inoculum 5×10^5 CFU/mL, strain GC 4564) was 0.5 µg/mL (≈ 0.341 µM), the “MIC Streptococcus pneumoniae (GC 4565)” value (Streptococcus sp.; inoculum 5×10^5 CFU/mL, strain GC 4565) was 0.12 µg/mL (≈ 0.0819 µM) and the “Clinical Chemistry (Day 10) % of Control, BUN” value [2] was “+179%”. The “Clinical Chemistry (Day 10) % of Control, Creatinine” value [2] was “+124%”, the “MIC Escherichia coli (ATCC 25922)” value (Escherichia coli) was 64 µg/mL (≈ 43.7 µM) and the “MIC Escherichia coli (GC 4559)” value (Escherichia coli) was over 64 µg/mL. For the same compound, the “MIC Escherichia coli (GC 4560)” value (Escherichia coli) was 1 µg/mL (≈ 0.682 µM), the “Anatomical Pathology (Day 10), Heart” value [3] was 0 and the “Anatomical Pathology (Day 10), Kidney” value [3] was “+++”.

From patent US6914045B2, “Glycopeptide antibiotics” (Wyeth Holdings Corporation, priority 2001, dated 2005)
